{"source": "patent US20080311657A1", "about": "“Killing Human Lymphoma and Leukemia Cancer Cells and Tcr-Activated Normal Human Cells By Dopamine D1r Agonists” (priority 2005, published 2008)", "key": {"α1 adrenoceptors": {"tested_on": "α1 adrenoceptors", "details": "cited from earlier work"}, "[1]": {"tested_on": "Human Chronic Myeloid Leukemia (CML, K-562)", "assay": "Cell death by LDH release (CytoTox 96)", "assay_type": "cell-based", "description": "(§1) Cell viability was tested afterwards.\n(§2) Tables 3 and 4 show results of experiments designed primarily for studying the kinetics of the effect (herein fenoldopam hydrobromide was tested only at a concentration range of 10^−4 M-10^−6 M), and indicate that already after 1 minute of fenoldopam hydrobromide addition, there is an increased LDH. Yet, the extent of death increased gradually with time (10, 30 and 60 minutes), and after 1 hour the cancer cells released dramatic levels of LDH, indicating massive cell death."}, "[2]": {"tested_on": "Human T-Cell Lymphoma (HuT-78)", "assay": "Cell death by LDH release (CytoTox 96)", "assay_type": "cell-based", "description": "as §1, §2"}, "5HT2 receptors": {"tested_on": "5HT2 receptors", "details": "cited from earlier work"}, "5HT1 receptors": {"tested_on": "5HT1 receptors", "details": "cited from earlier work"}, "α2-adrenoceptors": {"tested_on": "α2-adrenoceptors", "details": "cited from earlier work"}, "β adrenoceptors": {"tested_on": "β adrenoceptors", "details": "cited from earlier work"}, "[3]": {"tested_on": "Human Burkitt's B-Cell Lymphoma (Daudi)", "assay": "Cell death by LDH release (CytoTox 96)", "assay_type": "cell-based", "details": "1 hour", "description": "as §1"}, "muscarinic receptors": {"tested_on": "muscarinic receptors", "details": "cited from earlier work"}, "D2-like receptors": {"tested_on": "D2-like receptors", "details": "cited from earlier work"}}, "note": "“And” between values parts separate entries of the source, which are not always exact repeats. Equal values may be shown once."}
{"smiles": "Oc1ccc(C2CNCCc3c2cc(O)c(O)c3Cl)cc1", "note": "(stereo not shown) [Fenoldopam]", "values": [{"measurement": "Affinity, in words", "setting": "α1 adrenoceptors", "result": "no significant affinity"}, {"measurement": "Release of LDH (OD), Average OD", "setting": "[1]; Fenoldopam 10^−4M 1 Min", "result": 1.081, "unit": "OD"}, {"measurement": "Release of LDH (OD), OD Duplicates", "setting": "[1]; Fenoldopam 10^−4M 1 Min", "result": 1.081, "unit": "OD"}, {"measurement": "Release of LDH (OD), Average OD", "setting": "[1]; Fenoldopam 10^−4M 10 Min", "result": 0.863, "unit": "OD"}, {"measurement": "Release of LDH (OD), OD Duplicates", "setting": "[1]; Fenoldopam 10^−4M 10 Min", "result": "0.868 OD and 0.858 OD"}, {"measurement": "Release of LDH (OD), Average OD", "setting": "[1]; Fenoldopam 10^−4M 30 Min", "result": 2.7755, "unit": "OD"}, {"measurement": "Release of LDH (OD), OD Duplicates", "setting": "[1]; Fenoldopam 10^−4M 30 Min", "result": "2.737 OD and 2.814 OD"}, {"measurement": "Release of LDH (OD), Average OD", "setting": "[1]; Fenoldopam 10^−4M 60 Min", "result": 2.27, "unit": "OD"}, {"measurement": "Release of LDH (OD), OD Duplicates", "setting": "[1]; Fenoldopam 10^−4M 60 Min", "result": "2.733 OD and 1.807 OD"}, {"measurement": "Release of LDH (OD), Average OD", "setting": "[1]; Fenoldopam 10^−5M 60 Min", "result": 2.9645, "unit": "OD"}, {"measurement": "Release of LDH (OD), OD Duplicates", "setting": "[1]; Fenoldopam 10^−5M 60 Min", "result": "2.907 OD and 3.022 OD"}, {"measurement": "Release of LDH (OD), Average OD", "setting": "[1]; Fenoldopam 10^−6M 60 Min", "result": 0.7625, "unit": "OD"}, {"measurement": "Release of LDH (OD), OD Duplicates", "setting": "[1]; Fenoldopam 10^−6M 60 Min", "result": "0.759 OD and 0.766 OD"}, {"measurement": "Release of LDH (OD), Average OD", "setting": "[2]; Fenoldopam 10^−4M 1 Min", "result": 0.8135, "unit": "OD"}, {"measurement": "Release of LDH (OD), OD Duplicates", "setting": "[2]; Fenoldopam 10^−4M 1 Min", "result": "0.786 OD and 0.841 OD"}, {"measurement": "Release of LDH (OD), Average OD", "setting": "[2]; Fenoldopam 10^−4M 10 Min", "result": 1.4355, "unit": "OD"}, {"measurement": "Release of LDH (OD), Average OD", "setting": "[2]; Fenoldopam 10^−4M 30 Min", "result": 3.087, "unit": "OD"}, {"measurement": "Release of LDH (OD), OD Duplicates", "setting": "[2]; Fenoldopam 10^−4M 30 Min", "result": "3.015 OD and 3.159 OD"}, {"measurement": "Release of LDH (OD), Average OD", "setting": "[2]; Fenoldopam 10^−4M 60 Min", "result": 2.8775, "unit": "OD"}, {"measurement": "Release of LDH (OD), OD Duplicates", "setting": "[2]; Fenoldopam 10^−4M 60 Min", "result": "2.688 OD and 3.067 OD"}, {"measurement": "Release of LDH (OD), Average OD", "setting": "[2]; Fenoldopam 10^−5M 60 Min", "result": 2.9465, "unit": "OD"}, {"measurement": "Release of LDH (OD), OD Duplicates", "setting": "[2]; Fenoldopam 10^−5M 60 Min", "result": "2.907 OD and 3.022 OD"}, {"measurement": "Release of LDH (OD), Average OD", "setting": "[2]; Fenoldopam 10^−6M 60 Min", "result": 0.7625, "unit": "OD"}, {"measurement": "Release of LDH (OD), OD Duplicates", "setting": "[2]; Fenoldopam 10^−6M 60 Min", "result": "0.759 OD and 0.766 OD"}, {"measurement": "Affinity, in words", "setting": "5HT2 receptors", "result": "no significant affinity"}, {"measurement": "Affinity, in words", "setting": "5HT1 receptors", "result": "no significant affinity"}, {"measurement": "Affinity, in words", "setting": "α2-adrenoceptors", "result": "moderate affinity"}, {"measurement": "Affinity, in words", "setting": "β adrenoceptors", "result": "no significant affinity"}, {"measurement": "LDH Release (OD), Average", "setting": "[3]; Fenoldopam 10^−4M", "result": 0.9595, "unit": "OD"}, {"measurement": "LDH Release (OD), OD Duplicates", "setting": "[3]; Fenoldopam 10^−4M", "result": "0.961 OD and 0.958 OD"}, {"measurement": "LDH Release (OD), Average", "setting": "[3]; Fenoldopam 10^−5M", "result": 1.0025, "unit": "OD"}, {"measurement": "LDH Release (OD), OD Duplicates", "setting": "[3]; Fenoldopam 10^−5M", "result": "0.99 OD and 1.015 OD"}, {"measurement": "LDH Release (OD), Average", "setting": "[3]; Fenoldopam 10^−6M", "result": 0.526, "unit": "OD"}, {"measurement": "LDH Release (OD), OD Duplicates", "setting": "[3]; Fenoldopam 10^−6M", "result": "0.525 OD and 0.527 OD"}, {"measurement": "LDH Release (OD), Average", "setting": "[3]; Fenoldopam 10^−7M", "result": 0.5365, "unit": "OD"}, {"measurement": "LDH Release (OD), OD Duplicates", "setting": "[3]; Fenoldopam 10^−7M", "result": "0.55 OD and 0.523 OD"}, {"measurement": "LDH Release (OD), Average", "setting": "[3]; Fenoldopam 10^−8M", "result": 1.339, "unit": "OD"}, {"measurement": "LDH Release (OD), OD Duplicates", "setting": "[3]; Fenoldopam 10^−8M", "result": "1.316 OD and 1.362 OD"}, {"measurement": "LDH Release (OD), Average", "setting": "[3]; Fenoldopam 10^−9M", "result": 0.899, "unit": "OD"}, {"measurement": "LDH Release (OD), OD Duplicates", "setting": "[3]; Fenoldopam 10^−9M", "result": "0.903 OD and 0.895 OD"}, {"measurement": "Concentration of maximal killing", "setting": "[3]; LDH release, Table 2", "result": "10^−8 M"}, {"measurement": "Affinity, in words", "setting": "muscarinic receptors", "result": "no significant affinity"}, {"measurement": "Affinity, in words", "setting": "D2-like receptors", "result": "no significant affinity"}]}
